Results published in patent US5756355A, “Lipid membrane sensors” (Ecole Polytechnique Federale de Lausanne, priority 1992, dated 1998).

Columns and labels:
[1] = biological target: T1, 5-HT3 receptor (Bos taurus, UniProt F1N4Y2); assay: Current responses of gold-supported lipid bilayer sensor with incorporated 5-HT3 receptor during stimulation by agonists, without or with antagonist; type: biochemical, calf
T1 construct: from tissue; host or cells: calf brain, entorhinal cortex and hippocampus; detergent (OPG) solubilised and purified on 5-HT-agarose
T1 sequence (F1N4Y2 29-488): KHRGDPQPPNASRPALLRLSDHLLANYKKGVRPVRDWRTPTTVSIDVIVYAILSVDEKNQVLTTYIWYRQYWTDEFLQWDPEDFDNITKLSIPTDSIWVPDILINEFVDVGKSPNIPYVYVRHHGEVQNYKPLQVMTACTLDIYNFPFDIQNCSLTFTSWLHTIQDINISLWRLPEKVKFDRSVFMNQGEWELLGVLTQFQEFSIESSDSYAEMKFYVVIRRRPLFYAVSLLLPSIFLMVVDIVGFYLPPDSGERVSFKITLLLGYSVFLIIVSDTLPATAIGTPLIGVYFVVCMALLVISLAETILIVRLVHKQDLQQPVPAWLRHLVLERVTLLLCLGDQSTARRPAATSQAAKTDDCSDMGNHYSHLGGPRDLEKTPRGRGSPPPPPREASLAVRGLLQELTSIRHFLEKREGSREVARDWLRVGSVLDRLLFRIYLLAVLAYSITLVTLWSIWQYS
Description: A 1 mm^2 gold electrode was cleaned and inserted into the electrochemical cell as described in Example 5. First, 100 μl of the thiolipid/OPG solution (0.7 mM/48 mM in 0.1 M KCl) was added and the adsorption process followed as described in Example 6. After approximately 2 minutes, the solution was completely replaced. The sample was washed several times with 55 mM OGP in 0.1 M KCl.
A receptor-containing solution was prepared as follows: 2 mg (2.9 μmol) of DMPC, 2 mg (2.6 μmol) of POPC (i.e. an approximately 1:1 molar ratio of DMPC: POPC) and 2 mg ([…]) of OPG were ultrasonicated in 1 ml of 0.1 M KCl, until the solution became clear. This solution was mixed with 15 μg of the 5-HT3 receptor (1 mg/ml, in 40 mM OPG and complex buffer "A" as used in Example 4), 100 μl of the receptor-containing solution was placed in the cell. After about 2 minutes, the cell solution was diluted stepwise by the addition of small portions of 0.1 M KCl. Finally, the solution was completely replaced by 0.1 M KCl. The resulting layer was used for experiments within 5 hours at most, then being removed by washing with 55 mM OGP in 0.1 M KCl and formed again using the ice-cooled receptor solution.
50 μl portions of 5-HT solution "B" (20 μM 5-HT in 0.1 M KCl) were added successively to the layer with the incorporated receptor (still connected to the cell containing 500 μl of 0.1 M KCl). An interval of about 50 seconds was left between additions (the capacitive and the faradaic current reaching a constant value).
The construction of the receptor-containing system was performed as described above. Again, 500 μl of 0.1 M KCl was placed in the measurement cell but for stimulation, a solution "C" of 20 μM 1-phenylbiguanide, another agonist, in 0.1 M KCl was used.
The supported lipid bilayer, containing the 5-HT3 receptor, was formed as described in (ii). […] After each addition, the values of the capacitive and the faradaic currents were allowed to stabilize.
(§1) A large (geometrical area about 1 cm^2) AgCl-coated Ag wire served as the counter/reference electrode and was fixed at a defined distance from the working electrode. The impedance measurements were made using a two-channel lock-in amplifier (EG&G model 5206) at v=120 Hz, applying Uo =17.5 mV RMS to the electrochemical cell. The real and imaginary parts of the impedance were obtained from the currents in phase (faradaic component Ifarad) and 90° out of phase (capacitive component Icap) with the applied voltage, respectively. These currents were measured on a 1 k.OMEGA. resistor in series with the electrodes.
(§2) The impedance and capacitance of the membrane layers on the gold electrodes were determined from the two current components, Ifarad and Icap, using a simplified model for the electrical behaviour of the membrane with the membrane resistance R=Uo /Ifarad in parallel to the membrane capacitance C=Icap /(2πvUo).

[2] = Current responses of the lipid bilayer without receptor (pure lipid layer); settings: for alterations of the electrical properties of the lipid layer without receptor: same concentration range as with receptor; for Icap current response / Ifarad current response: pure lipid layer without receptor
Description: For comparison, a corresponding lipid bilayer without the receptor protein was formed by completing the imperfect thiolipid monolayer on the gold electrode with the corresponding pure phospholipid/detergent solution.
The same experiment was performed using a lipid layer without receptor.
The same experiment was performed using the lipid bilayer without receptor.
as §1, with “The impedance measurements were made using a two-channel lock-in amplifier (EG&G model 5206) at v=120 Hz, applying Uo =17.5 mV RMS to the electrochemical cell.” left out
as §2

[3] = phenylbiguanide 1.82 μM, Experiment 1
[4] = phenylbiguanide 1.82 μM, Experiment 2
[5] = phenylbiguanide 3.33 μM, Experiment 1
[6] = phenylbiguanide 3.33 μM, Experiment 2
[7] = phenylbiguanide 4.62 μM, Experiment 1
[8] = phenylbiguanide 4.62 μM, Experiment 2
[9] = phenylbiguanide 5.71 μM, Experiment 1
[10] = phenylbiguanide 5.71 μM, Experiment 2
[11] = phenylbiguanide 6.67 μM, Experiment 1
[12] = phenylbiguanide 6.67 μM, Experiment 2
[13] = phenylbiguanide 7.50 μM, Experiment 1
[14] = phenylbiguanide 7.50 μM, Experiment 2
[15] = phenylbiguanide 8.89 μM, Experiment 1
[16] = phenylbiguanide 8.89 μM, Experiment 2
[17] = phenylbiguanide 11.67 μM, Experiment 1
[18] = phenylbiguanide 11.67 μM, Experiment 2
[19] = phenylbiguanide 12.86 μM, Experiment 1
[20] = phenylbiguanide 12.86 μM, Experiment 2
[21] = phenylbiguanide 14.74 μM, Experiment 1
[22] = phenylbiguanide 14.74 μM, Experiment 2
[23] = phenylbiguanide 10. μM, Experiment 1
[24] = phenylbiguanide 10. μM, Experiment 2

For CN1C2CCC1CC(OC(=O)c1c[nH]c3ccccc13)C2 (stereo not drawn) [ICS 205-930], the “5-HT concentration necessary for binding to the receptor, times higher than in the absence of the antagonist” value ([1]; in the presence of 10 nM ICS 205-930) was “about 40 times” and the “alterations of the electrical properties of the lipid layer without receptor” value [2] was “No alterations of the electrical properties of the lipid bilayer”.
N=C(N)NC(=N)Nc1ccccc1 [1-phenylbiguanide] showed an Icap current response [1, 3] of 96.3 nA, an Ifarad current response [1, 3] of 23.6 nA and an Icap current response [1, 4] of 97.3 nA. For the same compound, the Ifarad current response [1, 4] was 22.7 nA, the Icap current response [1, 5] was 97.1 nA and the Ifarad current response [1, 5] was 26.1 nA. The Icap current response [1, 6] was 98.0 nA, the Ifarad current response [1, 6] was 25.0 nA and the Icap current response [1, 7] was 97.6 nA. For the same compound, the Ifarad current response [1, 7] was 27.7 nA, the Icap current response [1, 8] was 98.5 nA and the Ifarad current response [1, 8] was 26.6 nA. The Icap current response [1, 9] was 98 nA, the Ifarad current response [1, 9] was 28.9 nA and the Icap current response [1, 10] was 99.2 nA. It also gave an Ifarad current response [1, 10] of 28.3 nA, an Icap current response [1, 11] of 98.3 nA and an Ifarad current response [1, 11] of 29.7 nA. The Icap current response [1, 12] was 99.4 nA, the Ifarad current response [1, 12] was 29.0 nA and the Icap current response [1, 13] was 98.4 nA. For the same compound, the Ifarad current response [1, 13] was 30.1 nA, the Icap current response [1, 14] was 99.5 nA and the Ifarad current response [1, 14] was 29.5 nA. For the same compound, the Icap current response [1, 15] was 98.5 nA, the Ifarad current response [1, 15] was 30.6 nA and the Icap current response [1, 16] was 99.6 nA. The Ifarad current response [1, 16] was 29.8 nA, the Icap current response [1, 17] was 98.6 nA and the Ifarad current response [1, 17] was 31.1 nA. The Icap current response [1, 18] was 99.6 nA, the Ifarad current response [1, 18] was 30.3 nA and the Icap current response [1, 19] was 98.6 nA. It also gave an Ifarad current response [1, 19] of 31.2 nA, an Icap current response [1, 20] of 99.6 nA and an Ifarad current response [1, 20] of 30.4 nA. The Icap current response [1, 21] was 98.6 nA, the Ifarad current response [1, 21] was 31.2 nA and the Icap current response [1, 22] was 99.6 nA. It also gave an Ifarad current response [1, 22] of 30.4 nA, an Icap current response [1, 23] of 98.6 nA and an Ifarad current response [1, 23] of 30.8 nA. The Icap current response [1, 24] was 99.6 nA, the Ifarad current response [1, 24] was 30.0 nA and the Icap current response ([2]; 1-phenylbiguanide 7.5 μM) was 96.5 nA. The Ifarad current response ([2]; 1-phenylbiguanide 7.5 μM) was 20.9 nA, the Icap current response ([2]; 1-phenylbiguanide 14.74 μM) was 96.4 nA and the Ifarad current response ([2]; 1-phenylbiguanide 14.74 μM) was 20.7 nA.
In the case of NCCc1c[nH]c2ccc(O)cc12 [5-hydroxytryptamine], the “alterations of the electrical properties of the lipid layer without receptor” value [2] is reported as “no alterations of the electrical properties of the pure lipid layer were observed”.
